Columns and labels:
[1] = Fluorescence polarisation ratio of fluorophores, commercial fluorescence spectrometer with two polarising filters; type: physicochemical; details: average of 20 replicate readings, cuvette
Description: A standard commercial fluorescence spectrometer (LS50-B, Perkin Elmer) was used to carry out conventional measurements of fluorescence, scattered light intensity and for obtaining excitation and emission spectra, with a 1 cm path length acrylic cuvette (not shown). A yellow Schott glass filter (not shown) (YG495, thickness=3 mm) was placed within the sample chamber directly in front of the window of a PMT, in order to block excitation light scattered towards the PMT by yeast cells suspended in the cuvette. For fluorescence measurements the excitation and emission wavelengths were 490 and 520 nm respectively. […] Light intensity was recorded in arbitrary units produced directly by the instrument software.
Four fluorophores were chosen, which were close spectroscopic mimics of GFP. […] Using the commercial fluorescence spectrometer (not shown), the fluorescence excitation and emission spectra for each fluorophore and for GFP were obtained. […] HPTSA needed to be used at 20 times the concentration of fluorescein to obtain the same magnitude fluorescence signal.
To measure the fluorescence polarisation ratio (P) of the fluorophores, two polarising filters (not shown) (Grade HN38 polaroid sheet, laminated in rigid acrylic, thickness=3.4 mm) were inserted within the housing 3, one either side of the sample cuvette (Which was used in place of the flow cell 2). […]

[2] = Fluorescence polarisation by flow-injection analysis on the two-PMT apparatus; type: physicochemical; details: 488 nm excitation, GFP within whole GM-FF18984 yeast cells (0.005 % MMS, 18 hours), HPTSA 1×10^−7 mol l^−1 in phosphate buffer
Procedure: An air cooled argon ion laser (162LGL, LG Laser Graphics GmbH, Dieburg, Germany), provided a 488 nm excitation light beam of 5 mW after filtering (TEM00>95%, beam diameter 0.67±0.05 mm). The light beam is represented by the arrow 1 in FIG. 1. The light beam 1 was plane polarised (>100:1). A four window quartz fluorescence flow cell 2 with an internal volume of 132 μl, specially constructed by Hellma Ltd, Southend-on-Sea, UK was housed in a cubic black plastic mounting block 3 (30×30×30 mm). The mounting block 3 was built at the University of Manchester Institute of Science and Technology. […]
A 488 nm interference filter 7, (3 nm half bandwidth), was used to filter the excitation light beam 1. […] One filter 8, 9 was rotated through 90° with respect to the other, such that one PMT 5 recorded the fluorescence intensity emitted polarised parallel with respect to the excitation beam (Ill), and the other PMT 6 recorded that emitted polarised perpendicular with respect to the excitation beam (Il). […] Additional filters were optimised and used in conjunction with the polarising filters to allow the laser-induced GFP fluorescence at 517 nm to be measured, whilst rejecting the high intensity laser light at 488 nm scattered towards the detector by yeast cells suspended in the stream of liquid passing through the flow cell. […]

O=S(=O)([O-])c1cc(O)c2ccc3c(S(=O)(=O)[O-])cc(S(=O)(=O)[O-])c4ccc1c2c34.[Na+].[Na+].[Na+] [HPTSA, 8-hydroxypyrene-1,3,6-trisulfonic acid trisodium salt]
difference between Ill and Il [1]: less than 0.5%
average fluorescence polarisation ratio (P) [2]: ≈ 0

From patent US6509161B1, “Green fluorescent protein” (Gentronix Limited, priority 2000, dated 2003)
